Assay results taken from paper PMC5660261 (Frontiers in Pharmacology, 2017).

What was measured:
human CB2R [1] = molecular target: T1, human CB2R (Homo sapiens, UniProt P34972); assay: HTRF (Tag-lite) competition binding of red CB2R ligand in living HEK-293T cells expressing SNAP-CB2R; conditions: 100 nM red CB2R ligand, low nanomolar CBD concentrations
T1 construct: host or cells: HEK-293T, transient transfection, living cells

human CB2R [2] = molecular target: T1, human CB2R; assay: Forskolin-induced intracellular cAMP determination in HEK-293T cells expressing CB2R; assay type: cell-based
human GPR55 = molecular target: T2, human GPR55 (Homo sapiens, UniProt Q9Y2T6); assay: Forskolin-induced intracellular cAMP determination in HEK-293T cells expressing GPR55; assay type: cell-based
T2 construct: expressed in transfected cells; host or cells: HEK-293T, transient transfection
Experimental: Two hours before initiating the experiment, growth medium was replaced by serum-free DMEM. Then, HEK-293T cells transiently expressing CB2R or GPR55 were detached and resuspended in growing medium containing 50 μM zardaverine and plated in 384-well microplates (2,500 cells/well), pretreated (15 min) with the corresponding antagonists—or vehicle—and stimulated with agonists (15 min) before adding 0.5 μM forskolin or vehicle. Readings were performed after 15 min of incubation at 25°C. HTRF measures were performed using the Lance Ultra cAMP kit (PerkinElmer, Waltham, MA, United States). Fluorescence at 665 nm was analyzed on a PHERAstar Flagship microplate reader equipped with an HTRF optical module (BMG Lab Technologies, Offenburg, Germany).

human CB2R [3] = molecular target: T1, human CB2R; assay: HTRF (Tag-lite) saturation binding of red CB2R ligand in living HEK-293T cells expressing SNAP-CB2R

T1 sequence (P34972 whole entry): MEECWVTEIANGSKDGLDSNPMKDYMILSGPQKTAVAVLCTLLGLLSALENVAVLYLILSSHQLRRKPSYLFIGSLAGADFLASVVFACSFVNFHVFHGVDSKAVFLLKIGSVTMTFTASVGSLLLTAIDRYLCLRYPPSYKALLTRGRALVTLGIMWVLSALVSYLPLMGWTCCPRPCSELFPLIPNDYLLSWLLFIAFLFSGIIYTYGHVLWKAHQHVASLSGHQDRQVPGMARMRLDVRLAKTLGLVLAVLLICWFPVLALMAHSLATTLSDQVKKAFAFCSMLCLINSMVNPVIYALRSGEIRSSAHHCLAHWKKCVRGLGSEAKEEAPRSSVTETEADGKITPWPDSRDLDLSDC
T2 sequence (Q9Y2T6 whole entry): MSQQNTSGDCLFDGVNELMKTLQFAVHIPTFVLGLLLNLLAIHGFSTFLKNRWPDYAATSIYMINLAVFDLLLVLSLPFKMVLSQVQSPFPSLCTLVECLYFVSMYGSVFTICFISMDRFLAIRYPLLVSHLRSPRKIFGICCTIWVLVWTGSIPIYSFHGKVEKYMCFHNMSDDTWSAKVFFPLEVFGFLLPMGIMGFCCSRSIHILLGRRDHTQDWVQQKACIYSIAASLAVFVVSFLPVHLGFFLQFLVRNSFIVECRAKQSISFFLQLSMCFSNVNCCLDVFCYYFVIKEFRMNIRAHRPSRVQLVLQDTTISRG

## C=C(C)[C@@H]1CCC(C)=C[C@H]1c1c(O)cc(CCCCC)cc1O [CBD, cannabidiol]
Human CB2R [1]
  reduction of fluorescent agonist binding: circa 25%
Human CB2R [2]; concentration range 1–1,000 nM, no agonist, HEK-293T cells expressing human CB2R
  G-protein-coupled signal (cAMP) of compound alone: did not significantly engage any G-protein-coupled signal
Human GPR55; 100 nM JWH133, HEK-293T transiently transfected with GPR55
  cAMP response to combined treatment with CBD and JWH133: not significantly different than that achieved by CBD alone
Human GPR55; HEK-293T cells expressing human GPR55
  cAMP signal of compound alone: results were similar to those in cells expressing the CB2R

## SR144528
Human CB2R [3]
  effect on maximum binding (Bmax) of red CB2R ligand: reduced Bmax values

## CCCC(C)(C)c1ccc2c(c1)OC(C)(C)[C@@H]1CC=C(C)C[C@@H]21 [JWH133]
Human CB2R [2]; 100 nM JWH133, data given in percentage of the 500 nM forskolin-induced cAMP concentration
  Agonist-induced reduction in cAMP: 31 ± 4
